What was measured:
Type in all cases: cell-based
TMD8 cells = assay: Viability assay of TMD8 cells (CTG); settings: Homo sapiens, cell viability, 120 hours
Method: (§1) The in vitro antiproliferative activity of the compounds of the present disclosure against TMD8 cells and OCI-LY10 cells was assayed using CTG (Cell Titer-Glo) luminescent cell viability assay. The specific assay methods were as follows. • a) TMD8 cells were cultured at 37 °C and 5% CO2 in complete medium [RPMI 1640 (supplier Gibco, product number 22400-089) + 10% FBS (supplier Gibco, product number 10091-148) + 1% P/S (supplier Hyclone, product number SV30010)]; OCI-LY10 cells were cultured at 37 °C and 5% CO2 in medium [IMDM (supplier Gibco, product number 31980-030) + 20% FBS (supplier Gibco, product number 10091-148) + 1% P/S (supplier Hyclone, product number SV30010) + 0.05 mM 2-Mercaptoethanol (supplier Sigma, product number M6250)]. • b) Cells in the logarithmic growth phase were harvested, and the total cell count and viable cell count were determined using a Vi-cell cell counter (supplier: BECKMAN COULTER, product number 2785198). • c) Cell density was adjusted using complete culture medium. Then, the cells were inoculated at 1500 cells per well in a 384-well cell culture plate (supplier Greiner, product number 781090). • d) The cells in the 384-well plate were cultured at 37 °C and 5% CO2 overnight. • e) A 10-fold drug solution was prepared, and then the serially diluted compound was transferred to the corresponding assay wells of the 384-well cell plate so that the final assay concentration was 1000 nM, with 9 concentrations, 3-fold dilutions, and triplicates for each drug concentration. • f) The cells in the 384-well plate with the drug added were cultured at 37 °C and 5% CO2 for another 120 hours. • g) The cells were removed from the incubator, and allowed to equilibrate at room temperature for 30 minutes. The cell state and compound solubility were observed under a microscope. • h) An equal volume of CellTiterGlo solution (supplier Promega, product number G7573) was added to each well, and the plate was incubated at room temperature for 30 minutes. • i) Then, the luminescent signal value was detected on an EnVision instrument (supplier PerkinElmer, product number 2441715).
(§2) The data were analyzed using XL-fit software (supplier: ID Business Solutions Ltd., software version: XL fit 5.5.0.5). Nonlinear regression was performed using X=Log(X), and the X values were transformed using a four-parameter Logistic model 205, from which the IC50 values were calculated. Inhibition rate % = (Max−samplevalue)/Max*100.(Max:DMSOnegativecontrol) [formula]

OCI-LY10 cells = assay: Viability assay of OCI-LY10 cells (CTG); settings: Homo sapiens, OCI-Ly10, 120 h, cell viability, read-out: OCl-Ly10
Method: as §1, §2

[1] = system: Ba/F3-ETV6-BTK-T474I cells; assay: Viability assay of Ba/F3-ETV6-BTK-T474I cells (CTG); settings: Mus musculus, BaF3, cell viability, 72 hours
Method: The in vitro antiproliferative activity of the compounds of the present disclosure against Ba/F3-ETV6-BTK-T474I cells was assayed using CTG luminescent cell viability assay. The specific assay methods were as follows: • a) Ba/F3-ETV6-BTK-T474I cells were cultured at 37 °C and 5% CO2 in complete medium [RPMI 1640 (supplier Gibco, product number 22400-089) + 10% FBS (supplier Gibco, product number 10091-148)]. • b) Cells in the logarithmic growth phase were harvested, and cell counting was performed using a […]. Trypan blue exclusion test was used to determine the cell viability, ensuring that the cell viability was above 90%. • c) Cell density was adjusted using complete culture medium. Then, the cells were inoculated at 90 µL, a total of 3000 cells per well in a 96-well cell culture plate (supplier: Shanghai Jing An Biotechnology Co., Ltd., product number J09601). • d) The cells in the 96-well plate were cultured at 37 °C and 5% CO2. • e) A 10-fold drug solution was prepared, and then 10 µL of each serially diluted compound was transferred to the corresponding assay wells of the 96-well cell plate so that the final assay concentration was 1000 nM, with 9 concentrations, 3.16-fold dilutions, and triplicates for each drug concentration. • f) The cells in the 96-well plate with the drug added were cultured at 37 °C and 5% CO2 for another 72 hours. Then, CTG analysis was performed. • g) The CTG reagent was melted, and the cell plate was equilibrated at room temperature for 30 minutes. • h) An equal volume of CTG solution was added to each well. • i) The plate was shaken on an orbital shaker for 5 minutes to lyse the cells. • j) The cell plate was placed at room temperature for 20 minutes to stabilize the luminescent signal. • k) The luminescent signal values were read and the data were collected.
The data were analyzed using GraphPad Prism 7.0 software. Nonlinear S-curve regression was used to fit the data to give a dose-response curve, from which the IC50 values were calculated. [formula]

| Structure (SMILES) | IC50 (TMD8 cells) [nM] | IC50 (OCI-LY10 cells) [nM] | IC50 [1] [nM] |
| --- | --- | --- | --- |
| COc1ccc(F)cc1C(=O)NCc1ccc(-c2ncc(-c3ccc(OCCN4CCCC4)cn3)c3[nH]nc(N)c23)cc1 [Example 62, N-(4-(3-amino-7-(5-(2-(pyrrolidin-1-yl)ethoxy)pyridin-2-yl)-1H-pyrazolo[4,3-c]pyridin-4-yl)benzyl)-5-fluoro-2-methoxybenzamide] | ≤ 5 | ≤ 5 | 10 to 50 |
| COc1ccc(F)cc1C(=O)NCc1ccc(-c2ncc(-c3ccc(OCCN(C)C)cn3)c3[nH]nc(N)c23)cc1 [Example 60, N-(4-(3-amino-7-(5-(2-(dimethylamino)ethoxy)pyridin-2-yl)-1H-pyrazolo[4,3-c]pyridin-4-yl)benzyl)-5-fluoro-2-methoxybenzamide] | ≤ 5 | ≤ 5 | 5 to 10 |
| COc1ccc(F)cc1C(=O)NCc1ccc(-c2ncc(-c3cc4n(n3)CCN(C)C4)c3[nH]nc(N)c23)cc1 [Example 71, N-(4-(3-amino-7-(5-methyl-4,5,6,7-tetrahydropyrazolo[1,5-a]pyrazin-2-yl)-1H-pyrazolo[4,3-c]pyridin-4-yl)benzyl)-5-fluoro-2-methoxybenzamide] | ≤ 5 | ≤ 5 | 5 to 10 |
